Assay: xn = mol fraction of the nth substance listed

COCCOCCOCCOCCOC + CO
viscosity [mPa·s], 100 kPa
Conditions | 293.15 K | 298.15 K | 303.15 K
x2 = 0.0463 | 3.726 | 3.3 | 2.916
x2 = 0.1031 | 3.616 | 3.209 | 2.845
x2 = 0.1978 | 3.408 | 3.036 | 2.691
x2 = 0.3111 | 3.132 | 2.803 | 2.493
x2 = 0.3886 | 2.919 | 2.611 | 2.334
x2 = 0.494 | 2.592 | 2.326 | 2.089
x2 = 0.5935 | 2.25 | 2.031 | 1.829
x2 = 0.6966 | 1.868 | 1.696 | 1.537
x2 = 0.7966 | 1.467 | 1.344 | 1.225
x2 = 0.8472 | 1.243 | 1.145 | 1.047
x2 = 0.8972 | 1.024 | 0.948 | 0.871
x2 = 0.9495 | 0.803 | 0.744 | 0.683

Clc1cccc2ccccc12 + CO
viscosity [mPa·s], 101.33 kPa
Conditions | x1 = 0.0998 | x1 = 0.1992 | x1 = 0.302 | x1 = 0.4003 | x1 = 0.4961 | x1 = 0.5978 | x1 = 0.6961 | x1 = 0.801 | x1 = 0.8922
298.15 K | 0.814 | 1.096 | 1.372 | 1.617 | 1.847 | 2.064 | 2.237 | 2.454 | 2.67
303.15 K | 0.75 | 1.002 | 1.249 | 1.468 | 1.672 | 1.863 | 2.012 | 2.197 | 2.385
308.15 K | 0.689 | 0.918 | 1.142 | 1.336 | 1.516 | 1.683 | 1.818 | 1.984 | 2.157

COCCOCCOCCOCCOC + COC(=O)OC
298.15 K, 101.33 kPa
Conditions | viscosity [mPa·s]
x1 = 0.0013 | 0.595
x1 = 0.0051 | 0.603
x1 = 0.0117 | 0.623
x1 = 0.0228 | 0.642
x1 = 0.0349 | 0.673
x1 = 0.0584 | 0.726
x1 = 0.0861 | 0.792
x1 = 0.1164 | 0.875
x1 = 0.1595 | 0.994
x1 = 0.2094 | 1.132
x1 = 0.3042 | 1.414
x1 = 0.3316 | 1.499
x1 = 0.3593 | 1.576
x1 = 0.3994 | 1.703
x1 = 0.4379 | 1.815
x1 = 0.477 | 1.945
x1 = 0.5477 | 2.159
x1 = 0.6174 | 2.382
x1 = 0.6892 | 2.606
x1 = 0.7492 | 2.781
x1 = 0.7839 | 2.888
x1 = 0.8643 | 3.113
x1 = 0.9142 | 3.237
x1 = 0.949 | 3.324
x1 = 0.9732 | 3.369

Clc1ccccc1 + COC(=O)OC
Conditions | viscosity [mPa·s]
298.15 K, 101 kPa, x2 = 0.238 | 0.7093

CCCC(C)C + COC(C)(C)C
298.15 K, 101.33 kPa
Conditions | viscosity [mPa·s]
x2 = 0.0969 | 0.2794
x2 = 0.2016 | 0.2825
x2 = 0.3021 | 0.2858
x2 = 0.4006 | 0.2902
x2 = 0.5007 | 0.2956
x2 = 0.5985 | 0.3014
x2 = 0.6965 | 0.3079
x2 = 0.7978 | 0.3154
x2 = 0.8845 | 0.3228

Clc1ccccc1 + COC(C)(C)C
viscosity [mPa·s], 101.33 kPa
Conditions | x2 = 0.0948 | x2 = 0.1898 | x2 = 0.2929 | x2 = 0.3832 | x2 = 0.4974 | x2 = 0.6209 | x2 = 0.7014 | x2 = 0.8089 | x2 = 0.9102
293.15 K | 0.7752 | 0.7379 | 0.6754 | 0.6443 | 0.5825 | 0.5368 | 0.4905 | 0.456 | 0.4191
298.15 K | 0.7335 | 0.6981 | 0.6506 | 0.6036 | 0.5697 | 0.5019 | 0.4658 | 0.4246 | 0.3945

COCCOCCOCCOCCOC + COC(C)=O
viscosity [mPa·s], 101 kPa
Conditions | 298.15 K | 308.15 K | 318.15 K
x1 = 0.0089 | 0.382 | 0.344 | 0.325
x1 = 0.0206 | 0.404 | 0.364 | 0.339
x1 = 0.0384 | 0.439 | 0.392 | 0.365
x1 = 0.0758 | 0.519 | 0.459 | 0.42
x1 = 0.1174 | 0.61 | 0.539 | 0.484
x1 = 0.1646 | 0.729 | 0.63 | 0.56
x1 = 0.231 | – | 0.773 | 0.677
x1 = 0.2993 | 1.096 | 0.924 | 0.749
x1 = 0.3846 | 1.349 | 1.11 | 0.947
x1 = 0.453 | 1.581 | 1.294 | 1.09
x1 = 0.5398 | 1.854 | 1.503 | 1.254
x1 = 0.6662 | 2.272 | 1.832 | 1.504
x1 = 0.719 | 2.475 | 1.961 | 1.624
x1 = 0.7865 | 2.669 | 2.143 | 1.751
x1 = 0.8413 | 2.902 | 2.278 | 1.858
x1 = 0.8673 | 2.957 | 2.358 | 1.919
x1 = 0.8983 | 3.08 | 2.43 | 1.956
x1 = 0.9205 | 3.127 | 2.478 | 1.991
x1 = 0.9565 | 3.266 | 2.547 | 2.058

Clc1ccccc1 + COC(C)=O
viscosity [mPa·s], 101 kPa
Conditions | 298.15 K | 308.15 K
x2 = 0.0395 | 0.734 | 0.662
x2 = 0.1406 | 0.685 | 0.619
x2 = 0.2347 | 0.642 | 0.581
x2 = 0.3286 | 0.602 | 0.547
x2 = 0.4168 | 0.566 | 0.516
x2 = 0.4647 | 0.548 | 0.5
x2 = 0.5282 | 0.525 | 0.479
x2 = 0.6291 | 0.491 | 0.448
x2 = 0.7341 | 0.458 | 0.418
x2 = 0.8394 | 0.427 | 0.39
x2 = 0.9331 | 0.401 | 0.367

CCc1ccccc1 + COCCO
viscosity [mPa·s], 101 kPa
Conditions | 298.15 K | 308.15 K
x2 = 0.0558 | 0.65 | 0.548
x2 = 0.1525 | 0.679 | 0.577
x2 = 0.2511 | 0.717 | 0.612
x2 = 0.3504 | 0.766 | 0.655
x2 = 0.4525 | 0.831 | 0.708
x2 = 0.5021 | 0.869 | 0.738
x2 = 0.5522 | 0.911 | 0.771
x2 = 0.6499 | 1.008 | 0.844
x2 = 0.75 | 1.131 | 0.933
x2 = 0.853 | 1.291 | 1.043
x2 = 0.9546 | 1.488 | 1.175

Clc1ccccc1 + COCCO
303.15 K, 101.33 kPa
Conditions | viscosity [mPa·s]
x2 = 0.1075 | 0.749
x2 = 0.2093 | 0.782
x2 = 0.3086 | 0.836
x2 = 0.4113 | 0.894
x2 = 0.4993 | 0.952
x2 = 0.6006 | 1.028
x2 = 0.7032 | 1.113
x2 = 0.8023 | 1.201
x2 = 0.9234 | 1.309

— the CheMixHub viscosity set
